The test has as its system socially defeated mice. As to the kind of experiment: social defeat (SD) model in the mouse, social interaction with a non-aggressive intruder. Format: in vivo. An excerpt: N-acetylaspartylglutamate (NAAG) is the most abundant peptide neurotransmitter in the brain. Glu release is increased during stress. Inhibiting glutamatergic tone by inhibiting NAALADase proves an antidepressant in the social defeat (SD) model. The SD model is a form of conditioned contextual fear, in which once-defeated mice retain a long-lasting over-generalized fear and avoidance of all mice (even non-aggressive ones) and lose normal species-appropriate territorial defense.
The SD model is a form of conditioned contextual fear, in which once-defeated mice retain a long-lasting over-generalized fear and avoidance of all mice (even non-aggressive ones), losing normal species-appropriate territoriality [Lumley et al., 1999] and displaying immobility in a swim test—a behavior associated with models of depression [Hebert et al., 1998].
Thus, GPI 5232 increased normal territoriality and other species-appropriate social behavior. In sum, this drug diminished behaviors associated with conditioned contextual fear. It is also believed to reduce depression.

In the case of `O=C(O)CCC(CP(=O)(O)Cc1c(F)c(F)c(F)c(F)c1F)C(=O)O` (stereo not drawn) [GPI 5232], for the setting “SD model”, the “behaviors associated with conditioned contextual fear” value was “markedly diminished”; the “normal territoriality and other species-appropriate social behavior” value is on record as “increased”. The “display of territorial behavior in the form of runback re-approaches” value (acute injection, social interaction with a non-aggressive intruder (FIG. 1)) was “significantly increased”.

Values taken from patent US20030013635A1, “Method for the treatment of depression by inhibition of NAALADase” (priority 2001, published 2003).
